US20250051277A1, “DELIVERY OF THERAPEUTIC ALKALOID COMPOUNDS” (Sensorium Therapeutics, Inc., priority 2021, published 2025)
Like-named read-outs stand apart in the source and are kept apart here.

Legend:
[1] = assay type: physicochemical; settings: SGF with pepsin, pH 1.5, 37° C., 0.5 mM
[2] = assay type: physicochemical; settings: DI water, 25° C., 0.5 mM

Row | SMILES | Condition 1 Conversion (%) ([1]; time 1 min) | Condition 1 Conversion (%) ([1]; time 5 min) | Condition 1 Conversion (%) ([1]; time 30 min) | Condition 1 Conversion (%) ([1]; time 1 h) | Condition 1 Conversion (%) ([1]; time 4 h) | Condition 1 Conversion (%) ([1]; time 24 h) | Condition 2 Conversion (%) ([2]; time 1 min) | Condition 2 Conversion (%) ([2]; time 5 min) | Condition 2 Conversion (%) ([2]; time 30 min) | Condition 2 Conversion (%) ([2]; time 1 h) | Condition 2 Conversion (%) ([2]; time 4 h) | Condition 2 Conversion (%) ([2]; time 24 h)
1 | COc1ccc([C@@]23CCC(=NNC(=O)c4ccc(F)cc4)C[C@@H]2N(C)CC3)cc1OC [Compound 220, N-[[(3aS)-3a-(3,4-dimethoxyphenyl)-1-methyl-2,3,4,5,7,7a-hexahydroindol-6-ylidene]amino]-4-fluoro-benzamide] | 86.72% | 100% | 100% | 100% | 100% | 100% | 20.02% | 21.53% | 22.27% | 55.36% | 88.25% | 89.93%
2 | COc1ccc([C@@]23CCC(=NNc4ccc(Cl)cc4)C[C@@H]2N(C)CC3)cc1OC [Compound 221, N-[[(3aS,7aS)-3a-(3,4-dimethoxyphenyl)-1-methyl-2,3,4,5,7,7a-hexahydroindol-6-ylidene]amino]-4-chloro-aniline] | 0% | 0% | 2.9% | 3.4% | 17.5% | 95.1% | 0% | 0% | 0% | 0% | 0% | 0%
3 | COc1ccc([C@@]23CCC(=NNC(C)=O)C[C@@H]2N(C)CC3)cc1OC [Compound 222, N-[[(3aS,7aS)-3a-(3,4-dimethoxyphenyl)-1-methyl-2,3,4,5,7,7a-hexahydroindol-6-ylidene]amino]acetamide] | 100% | 100% | 100% | 100% | 100% | 100% | 10% | 20% | 50% | 100% | 100% | 100%
4 | COc1ccc([C@@]23CCC(=NNC(=O)COc4ccccc4)C[C@@H]2N(C)CC3)cc1OC [Compound 223, N-[[(3aS,7aS)-3a-(3,4-dimethoxyphenyl)-1-methyl-2,3,4,5,7,7a-hexahydroindol-6-ylidene]amino]-2-phenoxy-acetamide] | 100% | 100% | 100% | 100% | 100% | 100% | 9.8% | 10.4% | 13.5% | 18.5% | 50.1% | 81.3%
5 | COc1ccc([C@@]23CCC(=NOCCOc4ccccc4)C[C@@H]2N(C)CC3)cc1OC [Compound 234, (3aS,7aS)-3a-(3,4-dimethoxyphenyl)-1-methyl-N-(2-phenoxyethoxy)-2,3,4,5,7,7a-hexahydroindol-6-imine] | 0% | 0% | 0% | 0% | 2.16% | 2.63% | 0% | 0% | 0% | 0% | 0% | 0%
6 | COc1ccc([C@@]23CCC(=NNC(=O)c4ccc(Cl)cc4)C[C@@H]2N(C)CC3)cc1OC [Compound 240, N-[[(3aS,7aS)-3a-(3,4-dimethoxyphenyl)-1-methyl-2,3,4,5,7,7a-hexahydroindol-6-ylidene]amino]-4-chloro-benzamide] | 84% | 100% | 100% | 100% | 100% | 100% | 35.7% | 30% | 40.5% | 43.3% | 54.2% | 100%
7 | COc1ccc([C@@]23CCC(=NNC(=O)C(=O)O)C[C@@H]2N(C)CC3)cc1OC [Compound 241, 2-[2-[(3aS,7aS)-3a-(3,4-dimethoxyphenyl)-1-methyl-2,3,4,5,7,7a-hexahydroindol-6-ylidene]hydrazino]-2-oxo-acetic acid] | 100% | 100% | 100% | 100% | 100% | 100% | 0% | 28% | 30% | 52% | 86% | 100%
8 | COc1ccc([C@@]23CCC(=NNC(=O)CC(CC(=O)O)CC(C)C)C[C@@H]2N(C)CC3)cc1OC (stereo partly drawn) [Compound 242, 3-[2-[2-[(3aS,7aS)-3a-(3,4-dimethoxyphenyl)-1-methyl-2,3,4,5,7,7a-hexahydroindol-6-ylidene]hydrazino]-2-oxo-ethyl]-5-methyl-hexanoic acid] | 75.01% | 95.02% | 96.13% | 97.72% | 98.02% | 98.34% | 33.46% | 36.51% | 38.53% | 40.8% | 55.46% | 55.7%
9 | COc1ccc([C@@]23CC/C(=N\NC(=O)C4(C(=O)O)CC4)C[C@@H]2N(C)CC3)cc1OC [Compound 243, 1-[[[(3aS,7aS)-3a-(3,4-dimethoxyphenyl)-1-methyl-2,3,4,5,7,7a-hexahydroindol-6-ylidene]amino]carbamoyl]cyclopropanecarboxylic acid] | 80.17% | 100% | 100% | 100% | 100% | 100% | 0% | 0% | 0% | 0% | 27.04% | 46.78%
10 | COc1ccc([C@@]23CC/C(=N\NC(=O)c4ccccc4C(=O)O)C[C@@H]2N(C)CC3)cc1OC [Compound 244, 2-[[[(3aS,7aS)-3a-(3,4-dimethoxyphenyl)-1-methyl-2,3,4,5,7,7a-hexahydroindol-6-ylidene]amino]carbamoyl]benzoic acid] | 33.93% | 100% | 100% | 100% | 100% | 100% | 0% | 0% | 4.08% | 15.25% | 24.59% | 66.56%
11 | COc1ccc([C@@]23CC/C(=N\NC(=O)CCC(=O)O)C[C@@H]2N(C)CC3)cc1OC [Compound 245, 4-[2-[(3aS,7aS)-3a-(3,4-dimethoxyphenyl)-1-methyl-2,3,4,5,7,7a-hexahydroindol-6-ylidene]hydrazino]-4-oxo-butanoic acid] | 60% | 100% | 100% | 100% | 100% | 100% | 25% | 35% | 50% | 100% | 100% | 100%
12 | COc1ccc([C@@]23CC/C(=N\NC(=O)Nc4ccccc4Cl)C[C@@H]2N(C)CC3)cc1OC [Compound 249, 1-[(E)-[(3aS,7aS)-3a-(3,4-dimethoxyphenyl)-1-methyl-2,3,4,5,7,7a-hexahydroindol-6-ylidene]amino]-3-(2-chlorophenyl)urea] | 0% | 70.48% | 96.4% | 96.5% | 96.72% | 96.8% | 0% | 0% | 0% | 0% | 9.23% | 24.65%
13 | COc1ccc([C@@]23CCC(=NNC(=O)Nc4cccc(O)c4)C[C@@H]2N(C)CC3)cc1OC [Compound 251, 2-[(3aS,7aS)-3a-(3,4-dimethoxyphenyl)-1-methyloctahydro-6H-indol-6-ylidene)-N-(3-hydroxyphenyl)hydrazine-1-carboxamide] | 6.91% | 100% | 100% | 100% | 100% | 100% | 0% | 0% | 0% | 0% | 0% | 15.18%
